In brackets after ≈: the same amount, converted by molar mass. Non-standard residues stand in square brackets, D forms with d. Residues, ends and D or L forms follow the SMILES beside them. *: point of attachment. Phe(4-guanidino) = N=C(N)Nc1ccc(C[C@H](N)C(=O)O)cc1; Bip = N[C@@H](Cc1ccc(-c2ccccc2)cc1)C(=O)O; Phe(4-NH2) = Nc1ccc(C[C@H](N)C(=O)O)cc1; hArg = N=C(N)NCCCC[C@H](N)C(=O)O; Agp = N=C(N)NC[C@H](N)C(=O)O; Orn = NCCC[C@H](N)C(=O)O; NHBn = c1ccc(CN*)cc1
What was measured:
[1] = system: Staphylococcus aureus; assay: Antimicrobial activity against methicillin-resistant Staphylococcus aureus ATCC 33591 by serial dilution method; type: functional
[2] = system: Staphylococcus aureus; assay: Antimicrobial activity against Staphylococcus aureus ATCC 25923 by serial dilution method; type: functional
[3] = Binding affinity to trypsin at 25 degC by isothermal calorimetry
[4] = Chemical stability assessed as half life at 1 mg/ml in presence of trypsin incubated for 24 hrs by RP-HPLC; type: physicochemical; conditions: for half-life at 1 mg/ml: trypsin; for t1/2: isolated protein, 24 h
[5] = Half life in CD1 mouse stomach whole organ extracts assessed as half life at 1 mg/ml at 37 degC at pH 7.4 by HPLC; type: ADME, tissue-based
[6] = Half life in CD1 mouse liver whole organ extracts assessed as half life at 1 mg/ml at 37 degC by HPLC; type: ADME, tissue-based
[7] = Half life in CD1 mouse duodenum whole organ extracts assessed as half life at 1 mg/ml at 37 degC by HPLC; type: ADME, tissue-based

Structure (SMILES) | MIC [1] | MIC [2] | Kd [3] | half-life at 1 mg/ml [4] | t1/2 [4] | half-life at 1 mg/ml [5] | half-life at 1 mg/ml [6] | half-life at 1 mg/ml [7]
N=C(N)NCCC[C@H](NC(=O)[C@H](Cc1ccc(-c2ccccc2)cc1)NC(=O)[C@@H](N)CCCN)C(=O)NCc1ccccc1 (H-[Orn]-[Bip]-Arg-NHBn) | 25 µg/mL (≈ 41.6 µM) | 15 µg/mL (≈ 25 µM) | 37.2 µM | 5.1 h | – | – | – | –
N=C(N)NCCC[C@H](N)C(=O)N[C@@H](Cc1ccc(-c2ccccc2)cc1)C(=O)N[C@@H](Cc1ccc(NC(=N)N)cc1)C(=O)NCc1ccccc1 | 5 µg/mL (≈ 7.24 µM) | 5 µg/mL (≈ 7.24 µM) | 5.3 µM | 4.1 h | – | – | – | –
N=C(N)NCCCC[C@H](N)C(=O)N[C@@H](Cc1ccc(-c2ccccc2)cc1)C(=O)N[C@@H](CCCNC(=N)N)C(=O)NCc1ccccc1 (H-[hArg]-[Bip]-Arg-NHBn) | 10 µg/mL (≈ 15.2 µM) | < 2.5 µg/mL | – | 1.9 h | – | – | – | –
N=C(N)NCCC[C@H](N)C(=O)N[C@@H](Cc1ccc(-c2ccccc2)cc1)C(=O)N[C@@H](CCCN)C(=O)NCc1ccccc1 (H-Arg-[Bip]-[Orn]-NHBn) | 10 µg/mL (≈ 16.6 µM) | 5 µg/mL (≈ 8.32 µM) | 57.2 µM | – | Stable | – | – | –
N=C(N)Nc1ccc(C[C@H](N)C(=O)N[C@@H](Cc2ccc(-c3ccccc3)cc2)C(=O)N[C@@H](CCCCN)C(=O)NCc2ccccc2)cc1 (H-[Phe(4-guanidino)]-[Bip]-Lys-NHBn) | 10 µg/mL (≈ 15.1 µM) | 5 µg/mL (≈ 7.54 µM) | – | 2.2 h | – | – | – | –
N=C(N)NCCC[C@H](NC(=O)[C@@H](N)CCCNC(=N)N)C(=O)N[C@@H](Cc1ccc(-c2ccccc2)cc1)C(=O)NCc1ccccc1 (H-Arg-Arg-[Bip]-NHBn) | 5 µg/mL (≈ 7.78 µM) | 5 µg/mL (≈ 7.78 µM) | – | < 0.5 h | – | – | – | –
N=C(N)NCCC[C@H](N)C(=O)N[C@@H](Cc1ccc(NC(=N)N)cc1)C(=O)N[C@@H](Cc1ccc(-c2ccccc2)cc1)C(=O)NCc1ccccc1 (H-Arg-[Phe(4-guanidino)]-[Bip]-NHBn) | 5 µg/mL (≈ 7.24 µM) | 2.5 µg/mL (≈ 3.62 µM) | – | 3.5 h | – | – | – | –
N=C(N)NCCC[C@H](NC(=O)[C@H](Cc1ccc(-c2ccccc2)cc1)NC(=O)[C@@H](N)CCCCN)C(=O)NCc1ccccc1 (H-Lys-[Bip]-Arg-NHBn) | 10 µg/mL (≈ 16.3 µM) | 10 µg/mL (≈ 16.3 µM) | 11.6 µM | 1.8 h | – | – | – | –
N=C(N)NCCC[C@H](NC(=O)[C@H](Cc1ccc(-c2ccccc2)cc1)NC(=O)[C@@H](N)CCCNC(=N)N)C(=O)NCc1ccccc1 (H-Arg-[Bip]-Arg-NHBn) | 10 µg/mL (≈ 15.6 µM) | 10 µg/mL (≈ 15.6 µM) | 11.3 µM | 1 h | – | 0.167 h | 1.76 h | 0.102 h
N=C(N)NCCC[C@H](N)C(=O)N[C@@H](Cc1ccc(-c2ccccc2)cc1)C(=O)N[C@@H](CNC(=N)N)C(=O)NCc1ccccc1 (H-Arg-[Bip]-[Agp]-NHBn) | 5 µg/mL (≈ 8.13 µM) | 5 µg/mL (≈ 8.13 µM) | – | – | Stable | 11.7 h | 3.19 h | 5.39 h
N=C(N)NCCC[C@H](NC(=O)[C@H](Cc1ccc(-c2ccccc2)cc1)NC(=O)[C@@H](N)Cc1ccc(NC(=N)N)cc1)C(=O)NCc1ccccc1 (H-[Phe(4-guanidino)]-[Bip]-Arg-NHBn) | 5 µg/mL (≈ 7.24 µM) | 5 µg/mL (≈ 7.24 µM) | – | 0.5 h | – | – | – | –
N=C(N)NCCC[C@H](N)C(=O)N[C@@H](Cc1ccc(NC(=N)N)cc1)C(=O)N[C@@H](Cc1c[nH]c2ccccc12)C(=O)NCc1ccccc1 (H-Arg-[Phe(4-guanidino)]-Trp-NHBn) | 50 µg/mL (≈ 76.5 µM) | 15 µg/mL (≈ 22.9 µM) | – | 8 h | – | – | – | –
N=C(N)NCCC[C@H](NC(=O)[C@@H](N)CCCNC(=N)N)C(=O)N[C@@H](Cc1c[nH]c2ccccc12)C(=O)NCc1ccccc1 (H-Arg-Arg-Trp-NHBn) | 75 µg/mL (≈ 124 µM) | 25 µg/mL (≈ 41.3 µM) | – | < 0.5 h | – | – | – | –
N=C(N)NCCC[C@H](N)C(=O)N[C@@H](Cc1ccc(N)cc1)C(=O)N[C@@H](Cc1ccc(-c2ccccc2)cc1)C(=O)NCc1ccccc1 (H-Arg-[Phe(4-NH2)]-[Bip]-NHBn) | 10 µg/mL (≈ 15.4 µM) | 15 µg/mL (≈ 23.1 µM) | 2.6 µM | – | Stable | – | – | –
N=C(N)NC[C@H](NC(=O)[C@H](Cc1ccc(-c2ccccc2)cc1)NC(=O)[C@@H](N)CNC(=N)N)C(=O)NCc1ccccc1 (H-[Agp]-[Bip]-[Agp]-NHBn) | 15 µg/mL (≈ 25.6 µM) | 10 µg/mL (≈ 17 µM) | – | – | Stable | – | – | –
N=C(N)NCCC[C@H](NC(=O)[C@H](Cc1ccc(-c2ccccc2)cc1)NC(=O)[C@@H](N)CNC(=N)N)C(=O)NCc1ccccc1 (H-[Agp]-[Bip]-Arg-NHBn) | 10 µg/mL (≈ 16.3 µM) | 10 µg/mL (≈ 16.3 µM) | – | 1.4 h | – | – | – | –
NCCCC[C@H](NC(=O)[C@H](Cc1ccc(-c2ccccc2)cc1)NC(=O)[C@@H](N)CCCCN)C(=O)NCc1ccccc1 (H-Lys-[Bip]-Lys-NHBn) | 15 µg/mL (≈ 25.6 µM) | 25 µg/mL (≈ 42.6 µM) | 21 µM | 4.5 h | – | – | – | –
N=C(N)Nc1ccc(C[C@H](NC(=O)[C@H](Cc2ccc(-c3ccccc3)cc2)NC(=O)[C@@H](N)CCCCN)C(=O)NCc2ccccc2)cc1 (H-Lys-[Bip]-[Phe(4-guanidino)]-NHBn) | 5 µg/mL (≈ 7.54 µM) | 5 µg/mL (≈ 7.54 µM) | – | 5 h | – | – | – | –
N=C(N)NCCCC[C@H](NC(=O)[C@H](Cc1ccc(-c2ccccc2)cc1)NC(=O)[C@@H](N)CCCNC(=N)N)C(=O)NCc1ccccc1 (H-Arg-[Bip]-[hArg]-NHBn) | 10 µg/mL (≈ 15.2 µM) | 5 µg/mL (≈ 7.61 µM) | 48.4 µM | – | Stable | 6.69 h | 1.07 h | 1.37 h
N=C(N)NCCC[C@H](N)C(=O)N[C@@H](Cc1ccc(N)cc1)C(=O)N[C@@H](Cc1c[nH]c2ccccc12)C(=O)NCc1ccccc1 (H-Arg-[Phe(4-NH2)]-Trp-NHBn) | > 150 µg/mL | 75 µg/mL (≈ 123 µM) | 14.9 µM | – | Stable | – | – | –
N=C(N)Nc1ccc(C[C@H](NC(=O)[C@H](Cc2ccc(-c3ccccc3)cc2)NC(=O)[C@@H](N)Cc2ccc(NC(=N)N)cc2)C(=O)NCc2ccccc2)cc1 (H-[Phe(4-guanidino)]-[Bip]-[Phe(4-guanidino)]-NHBn) | 5 µg/mL (≈ 6.77 µM) | < 2.5 µg/mL | – | 2.2 h | – | – | – | –
N=C(N)NCCC[C@H](N)C(=O)N[C@@H](Cc1ccc(-c2ccccc2)cc1)C(=O)N[C@@H](CCCCN)C(=O)NCc1ccccc1 (H-Arg-[Bip]-Lys-NHBn) | 10 µg/mL (≈ 16.3 µM) | 10 µg/mL (≈ 16.3 µM) | 20 µM | 2.8 h | – | – | – | –

From ChEMBL document CHEMBL2163284, “Targeting the S1 and S3 subsite of trypsin with unnatural cationic amino acids generates antimicrobial peptides with potential for oral administration” (J Med Chem, 2012)
